Read-outs that look alike come from different tables or passages of the source.
Assays:
[1] = system: P. falciparum D6 strain (drug sensitive); test: In vitro antiplasmodial activity, SYBR Green I assay, D6 strain; assay type: cell-based, Plasmodium falciparum; conditions: Plasmodium falciparum, read-out: P. falciparum IC50 values, nM D6
Method: (§1) Rationale for Synthesis of a 3-Biaryl Version of ELQ-300. […] All of this information is stored in a database with information relating to chemical structure, physical chemical properties, cross resistance patterns, mammalian cell cytotoxicity, enzyme inhibitor profiles, and synthesis details. […] We employed the SyBr Green assay and the plates were incubated for 72 hours before harvesting^18, 19. […] Stock solutions were freshly prepared in DMSO.
(§2) Plasmodium falciparum Culture. Laboratory strains of P. falciparum were cultured in human erythrocytes by standard methods. The parasites were grown in culture medium with fresh human erythrocytes maintained at 2% hematocrit at 37° C. in low-oxygen conditions (5% O2, 5% CO2, […] balance N2). […] Cultures were maintained at less than 10% parasitemia by transfer of infected cells to fresh erythrocytes and culture medium every 3 or 4 days.
(§3) In vitro drug susceptibility assays. SYBR green I assay. In vitro antiplasmodial activity was assessed using a published SYBR Green I fluorescence-based method. The drugs were added to 96-well plates using 2-fold serial dilutions in complete medium. […] Asynchronous P. falciparum parasites were diluted with uninfected erythrocytes and added to the wells to give a final culture volume of 100 μl at 2% hematocrit and 0.2% parasitemia. […] The parasites were then lysed by adding 100 μl of SYBR green I lysis buffer containing 0.2 μl/ml SYBR green I dye (10,000×) in 20 mM Tris (pH 7.5), 5 mM EDTA, 0.008% (wt/vol) saponin, and 0.08% (vol/vol) Triton X-100. The plates were incubated at room temperature for an hour in the dark. […] If the IC50 value fell outside of the initial tested range then the range was adjusted up or down and the assay was repeated.

[2] = system: P. falciparum Tm90-C2B (atovaquone-resistant clinical isolate); test: In vitro antiplasmodial activity, SYBR Green I assay, Tm90-C2B; assay type: cell-based; conditions: Plasmodium falciparum, read-out: P. falciparum IC50 values, nM Tm90-C2B
Method: as §1, §2, §3

[3] = system: P. falciparum Dd2 strain (multidrug resistant); test: microbe, parasite or virus in culture; assay type: cell-based, Plasmodium falciparum; conditions: Plasmodium falciparum, DD2, 72 h, read-out: P. falciparum IC50 values, nM Dd2
Method: as §1, §2, §3

[4] = system: P. falciparum D1 clone (ELQ-300 resistant); test: microbe, parasite or virus in culture; assay type: cell-based; conditions: Plasmodium falciparum, 72 h, read-out: P. falciparum IC50 values, nM D1
[5] = D6 strain, 72 h incubation, averages of quadruplicate with (95% confidence intervals)
[6] = Tm90-C2B strain, 72 h incubation, averages of quadruplicate with (95% confidence intervals)

Row | IC50 [1, 5] [nM] | IC50 [2, 6] [nM] | SMILES | IC50 [3] [nM] | IC50 [4] [nM] | IC50 ([1]; D6, 72 h) [nM] | IC50 ([2]; TM90, 72 h) [nM]
1 | 7.9 | 6 | Cc1[nH]c2ccccc2c(=O)c1-c1ccc(-c2ccc(OC(F)(F)F)cc2)cc1 [ELQ-649, 2-methyl-3-(4′-(trifluoromethoxy)-[1,1′-biphenyl]-4-yl)quinolin-4(1H)-one] |  |  |  | 
2 |  | 24.5 | Cc1[nH]c2cc(F)cc(F)c2c(=O)c1-c1ccc(-c2ccc(OC(F)(F)F)cc2)cc1 [ELQ-601, 5,7-difluoro-2-methyl-3-(4′-(trifluoromethoxy)-[1,1′-biphenyl]-4-yl)quinolin-4(1H)-one] |  |  |  | 
3 | 4.8 | 10.9 | COc1cc2[nH]c(C)c(-c3ccc(-c4ccc(C#N)cc4)cc3)c(=O)c2cc1Cl [ELQ-602, 4′-(6-chloro-7-methoxy-2-methyl-4-oxo-1,4-dihydroquinolin-3-yl)-[1,1′-biphenyl]-4-carbonitrile] |  |  |  | 
4 | 3.9 | 5.9 | COc1cc2[nH]c(C)c(-c3ccc(-c4ccc(OC(F)F)cc4)cc3)c(=O)c2cc1Cl [ELQ-600, 6-chloro-3-(4′-(difluoromethoxy)-[1,1′-biphenyl]-4-yl)-7-methoxy-2-methylquinolin-4(1H)-one] |  |  |  | 
5 |  |  | COc1ccc2c(=O)c(-c3ccc(-c4ccc(C(F)(F)F)cc4OC)cc3)c(C)[nH]c2c1 [ELQ-757] | 4.85 | 1.91 | 3.08 | 3
6 | 1.5 | 0.88 | COc1cc2[nH]c(C)c(-c3ccc(-c4ccc(Oc5ccc(OC(F)(F)F)cc5)cc4)cc3)c(=O)c2cc1Cl [ELQ-653] |  |  |  | 
7 | 3.5 | 3.5 | COc1cc2[nH]c(C)c(-c3ccc(-c4ccc(C(F)(F)F)cc4)cc3)c(=O)c2cc1Cl [ELQ-647, 6-chloro-7-methoxy-2-methyl-3-(4′-(trifluoromethyl)-[1,1′-biphenyl]-4-yl)quinolin-4(1H)-one] |  |  |  | 
8 | 1.1 | 0.49 | COc1cc2[nH]c(C)c(-c3ccc(-c4ccc(C(C)(C)C)cc4)cc3)c(=O)c2cc1Cl [ELQ-651, 3-(4′-(tert-butyl)-[1,1′-biphenyl]-4-yl)-6-chloro-7-methoxy-2-methylquinolin-4(1H)-one] |  |  |  | 
9 | 3.4 | 3 | COc1cc2[nH]c(C)c(-c3ccc(-c4ccc(Cl)cc4)cc3)c(=O)c2cc1Cl [ELQ-637, 6-chloro-3-(4′-chloro-[1,1′-biphenyl]-4-yl)-7-methoxy-2-methylquinolin-4(1H)-one] |  |  |  | 
10 | 1 | 1.5 | COc1cc2[nH]c(C)c(-c3ccc(-c4ccc(C)cc4)cc3)c(=O)c2cc1Cl [ELQ-603, 6-chloro-7-methoxy-2-methyl-3-(4′-methyl-[1,1′-biphenyl]-4-yl)quinolin-4(1H)-one] |  |  |  | 
11 | 0.8 | 0.4 | COc1cc2[nH]c(C)c(-c3ccc(-c4ccc(OC(F)(F)F)cc4)cc3)c(=O)c2cc1F [ELQ-650, 6-fluoro-7-methoxy-2-methyl-3-(4′-(trifluoromethoxy)-[1,1′-biphenyl]-4-yl)quinolin-4(1H)-one] |  |  |  | 
12 | 1.1 | 1 | COc1cc2[nH]c(C)c(-c3ccc(-c4cccc(C(F)(F)F)c4)cc3)c(=O)c2cc1Cl [ELQ-646, 6-chloro-7-methoxy-2-methyl-3-(3′-(trifluoromethyl)-[1,1′-biphenyl]-4-yl)quinolin-4(1H)-one] |  |  |  | 
13 | 15.6 | 7.9 | Cc1[nH]c2c(c(=O)c1-c1ccc(-c3ccc(OC(F)(F)F)cc3)cc1)CCCC2 [ELQ-660] |  |  |  | 
14 | 5 | 6 | COc1ccc(-c2ccc(-c3c(C)[nH]c4cc(OC)c(Cl)cc4c3=O)cc2)cc1 [ELQ-645, 6-chloro-7-methoxy-3-(4′-methoxy-[1,1′-biphenyl]-4-yl)-2-methylquinolin-4(1H)-one] |  |  |  | 

Row | SMILES | IC50 [1, 5] [nM] | IC50 [2, 6] [nM] | IC50 [3] [nM] | IC50 [4] [nM] | IC50 ([1]; D6, 72 h) [nM] | IC50 ([2]; TM90, 72 h) [nM]
15 | COc1cc2[nH]c(C)c(-c3ccc(-c4cccc(OC(F)(F)F)c4)cc3)c(=O)c2cc1Cl [ELQ-604, 6-chloro-7-methoxy-2-methyl-3-(3′-(trifluoromethoxy)-[1,1′-biphenyl]-4-yl)quinolin-4(1H)-one] | 0.6 | 0.5 |  |  |  | 
16 | COc1ccc2c(=O)c(-c3ccc(-c4cccc(OC(F)(F)F)c4)cc3)c(C)[nH]c2c1 [ELQ-732, 7-methoxy-2-methyl-3-(3′-(trifluoromethoxy)-[1,1′-biphenyl]-4-yl)quinolin-4(1H)-one] | 15.9 | 14.4 | 16.3 | 10.6 |  | 
17 | COc1ccc2c(=O)c(-c3ccc(-c4cccc(C(F)(F)F)c4)cc3)c(C)[nH]c2c1 [ELQ-730, 7-Methoxy-2-methyl-3-(3′-(trifluoromethyl)-[1,1′-biphenyl]-4-yl)quinolin-4(1H)-one] | 5.02 | 4.05 | 5.33 | 3.82 |  | 
18 | COc1ccc2c(=O)c(-c3ccc(-c4cc(C(F)(F)F)cc(C(F)(F)F)c4)cc3)c(C)[nH]c2c1 [ELQ-731, 3-(3′,5′-bis(trifluoromethyl)-[1,1′-biphenyl]-4-yl)-7-methoxy-2-methylquinolin-4(1H)-one] | 3.93 | 2.05 | 4.73 | 5.56 |  | 
19 | COc1ccc2c(=O)c(-c3ccc(-c4cc(F)c(OC(F)(F)F)c(F)c4)cc3)c(C)[nH]c2c1 [ELQ-733, 3-(3′,5′-difluoro-4′-(trifluoromethoxy)-[1,1′-biphenyl]-4-yl)-7-methoxy-2-methylquinolin-4(1H)-one] | 7.45 | 2.94 | 7.9 | 6.18 |  | 
20 | COc1cc2[nH]c(C)c(-c3ccc(-c4ccc(C(F)F)cc4)cc3)c(=O)c2cc1Cl [ELQ-659, 6-chloro-3-(4′-(difluoromethyl)-[1,1′-biphenyl]-4-yl)-7-methoxy-2-methylquinolin-4(1H)-one] | 1.8 | 0.57 |  |  |  | 
21 | COc1ccc2c(=O)c(-c3ccc(-c4ccc(F)cc4OC)cc3)c(C)[nH]c2c1 [ELQ-756, 3-(4′-Fluoro-2′-methoxy-[1,1′-biphenyl]-4-yl)-7-methoxy-2-methylquinolin-4(1H)-one] | 3.27 | 3.22 | 4.46 | 2.06 |  | 
22 | COc1ccc2c(=O)c(-c3ccc(-c4cc(F)c(OC)c(F)c4)cc3)c(C)[nH]c2c1 [ELQ-734, 3-(3′,5′-difluoro-4′-methoxy-[1,1′-biphenyl]-4-yl)-7-methoxy-2-methylquinolin-4(1H)-one] | 10.9 | 6.4 | 16.3 | 11.6 |  | 

— patent publication US20250353828A1, “SUBSTITUTED BIARYL ENDOCHIN-LIKE QUINOLONES WITH ENHANCED ANTIPARASITIC ACTIVITY” (Oregon Health & Science University, priority 2022, published 2025)
